Laboratory results reported in patent US20220251084A1, “PROGRANULIN MODULATORS AND METHODS OF USING THE SAME” (ARKUDA THERAPEUTICS, priority 2019, published 2022).

System: progranulin (PGRN) secretion, BV-2 cells
Assay: PGRN assay: progranulin induction cellular assay (ELISA of secreted mouse PGRN)
Type: cell-based
Procedure: Cellular Assays: To measure the efficacy of compounds, a progranulin induction cellular assay in mouse primary microglia (pMG), primary cortical neurons, and BV-2 cell lines is used. BV-2 cells are split the day before plating into a 96 well plate format at approximately 80%. Cells should be plated the day before and allowed for 1 hour attachment period and for 16 hour incubation. […] Standard ELISA kits to measure PGRN are available from vendors such as Adipogen, R&D, and Biovendor.

[1] = Mus musculus, BV-2, PGRN assay, Table C, secreted mouse PGRN in cell culture medium, ELISA
[2] = Mus musculus, BV-2, PGRN assay, Table D, secreted mouse PGRN in cell culture medium, ELISA
[3] = PGRN assay, Table D, secreted mouse PGRN in cell culture medium, ELISA

| Structure (SMILES) | EC50 [1] | EC50 [2] | also measured |
| --- | --- | --- | --- |
| O=C1C[C@H](COC(=O)N2CCc3ccccc3[C@@H]2c2ccc(F)cc2)CCN1 (single isomer, unassigned) [Compound 2185, (1 S)-(2-oxopiperidin-4-yl)methyl 1-(4-fluorophenyl)-3,4-dihydroisoquinoline-2(1H)-carboxylate] | > 10000 nM | – | – |
| O=C1C[C@@H](COC(=O)N2CCc3ccccc3[C@@H]2c2ccc(F)cc2)CCN1 (single isomer, unassigned) [Compound 2186, (1 S)-(2-oxopiperidin-4-yl)methyl 1-(4-fluorophenyl)-3,4-dihydroisoquinoline-2(1H)-carboxylate] | > 10000 nM | – | – |
| O=C(NC[C@H]1CNCCO1)N1CCc2ccccc2[C@@H]1c1ccc(F)cc1 (single isomer, unassigned) [Compound 2210] | – | 860 nM | – |
| O=C(NC[C@H]1CCCN1)N1CCc2ccccc2[C@H]1c1ccc(F)cc1 (single isomer, unassigned) [Compound 2219] | – | 6210 nM | – |
| O=C(NC[C@H]1CCCNC1)N1CCc2ccccc2[C@@H]1c1ccc(F)cc1 (single isomer, unassigned) [Compound 2220] | – | 5500 nM | – |
| CN1[C@H]2CC[C@@H]1[C@H](NC(=O)N1CCc3ccccc3[C@@H]1c1ccc(F)cc1)C2 (single isomer, unassigned) [Compound 2225] | – | 1010 nM | – |
| CN(C(=O)N1CCc2ccccc2[C@H]1c1ccc(F)cc1)[C@H]1CCNC1 (single isomer, unassigned) [Compound 2249] | – | – | EC50 [3]: > 10000 nM |
| O=C(OC[C@@]1(F)CCNC1)N1CCc2ccccc2[C@@H]1c1ccc(F)cc1 (single isomer, unassigned) [Compound 2255] | – | 240 nM | – |
| O=C(N[C@H]1CNCCOC1)N1CCc2ccccc2[C@@H]1c1ccc(F)cc1 (single isomer, unassigned) [Compound 2275] | – | – | EC50 [3]: 447 nM |
| O=C(N[C@H]1CNCCOC1)N1CCc2ccccc2[C@@H]1c1ccc(F)cc1 (single isomer, unassigned) [Compound 2276] | – | – | EC50 [3]: 1050 nM |
| O=C(N[C@@H]1CNCCOC1)N1CCc2ccccc2[C@@H]1c1ccc(F)cc1 (single isomer, unassigned) [Compound 2277] | – | 1060 nM | – |
| O=C(N[C@H]1CNCCOC1)N1CCc2ccccc2[C@H]1c1ccc(F)cc1 (single isomer, unassigned) [Compound 2278] | – | 439 nM | – |
| O=C(N1CC[C@@]2(CNCCO2)C1)N1CCc2ccccc2[C@H]1c1ccc(F)cc1 (single isomer, unassigned) [Compound 2323] | – | 8870 nM | – |
| O=C(N1CC[C@@]2(CNCCO2)C1)N1CCc2ccccc2[C@@H]1c1ccc(F)cc1 (single isomer, unassigned) [Compound 2324] | – | 742 nM | – |
| O=C(N1CC[C@]2(CNCCO2)C1)N1CCc2ccccc2[C@H]1c1ccc(F)cc1 (single isomer, unassigned) [Compound 2325] | – | 4700 nM | – |
| O=C(N1CC[C@]2(CNCCO2)C1)N1CCc2ccccc2[C@@H]1c1ccc(F)cc1 (single isomer, unassigned) [Compound 2326] | – | 189 nM | – |

| Structure (SMILES) | EC50 [1] | EC50 [2] | also measured |
| --- | --- | --- | --- |
| C#CCOc1ccc2c(c1)C(c1ccc(F)cc1)N(C(=O)OCC13CCN(CC1)CC3)CC2 (stereo in doubt) [Compound 2053, (S)-quinuclidin-4-ylmethyl 1-(4-fluorophenyl)-7-(prop-2-ynyloxy)-3,4-dihydroisoquinoline-2(1H)-carboxylate] | 5740 nM | – | – |
| O=C([C@H](O)[C@@H]1CN2CCC1CC2)N1CCc2ccccc2[C@@H]1c1ccc(F)cc1 (stereo in doubt) [Compound 2075, 1-((S)-1-(4-fluorophenyl)-3,4-dihydroisoquinolin-2(1H)-yl)-2-hydroxy-2-(quinuclidin-3-yl)ethanone] | 895 nM | – | – |
| O=C(N[C@H]1CNCC1(F)F)N1CCc2ccccc2[C@@H]1c1ccc(F)cc1 (stereo in doubt) [Compound 2243, (1 S)—N-(4,4-difluoropyrrolidin-3-yl)-1-(4-fluorophenyl)-3,4-dihydroisoquinoline-2(1H)-carboxamide] | – | 360 nM | – |
| O=C(N[C@@H]1CNCC1(F)F)N1CCc2ccccc2[C@@H]1c1ccc(F)cc1 (stereo in doubt) [Compound 2244, (1 S)—N-(4,4-difluoropyrrolidin-3-yl)-1-(4-fluorophenyl)-3,4-dihydroisoquinoline-2(1H)-carboxamide] | – | 3260 nM | – |
| O=C(OCC12CCN(CC1)CC2)N1CCc2ccccc2[C@@H]1c1ccc(F)cc1 [Compound 2001] | – | – | EC50 (Mus musculus, BV-2): 170 nM |
| CN1C2CCC1CC(OC(=O)N1CCc3ccccc3[C@@H]1c1ccc(F)cc1)C2 (stereo partly drawn) [Compound 2007] | 1190 nM | – | – |
| O=C(CO[C@@H]1CN2CCC1CC2)N1CCc2ccccc2[C@@H]1c1ccc(F)cc1 [Compound 2009] | 811 nM | – | – |
| O=S(=O)(N[C@@H]1CN2CCC1CC2)N1CCc2ccccc2[C@@H]1c1ccc(F)cc1 [Compound 2010] | > 10000 nM | – | – |
| O=C(O[C@@H]1CN2CCC1CC2)N1CCc2ccccc2C1c1ccc2[nH]c(=O)sc2c1 (stereo partly drawn) [Compound 2011] | – | – | EC50 (Mus musculus, BV-2): > 10000 nM |
| O=C(O[C@@H]1CN2CCC1CC2)N1CCc2ccccc2[C@H]1c1ccc2[nH]c(=O)sc2c1 [Compound 2012] | – | – | EC50 (Mus musculus, BV-2): > 10000 nM |
| CN(CC12CCN(CC1)CC2)C(=O)N1CCc2ccccc2[C@@H]1c1ccc(F)cc1 [Compound 2013] | > 10000 nM | – | – |
| N#Cc1ccc2c(c1)CCN(C(=O)N[C@@H]1CN3CCC1CC3)[C@H]2c1ccc(F)cc1 [Compound 2014] | 2320 nM | – | – |
| N#Cc1ccc2c(c1)CCN(C(=O)N[C@@H]1CN3CCC1CC3)[C@@H]2c1ccc(F)cc1 [Compound 2015] | 1500 nM | – | – |
| CN1C2CCC1[C@@H](OC(=O)N1CCc3ccccc3[C@@H]1c1ccc(F)cc1)CC2 (stereo partly drawn) [Compound 2016] | 581 nM | – | – |
| CN1C2CCC1[C@H](OC(=O)N1CCc3ccccc3[C@H]1c1ccc(F)cc1)CC2 (stereo partly drawn) [Compound 2017] | 722 nM | – | – |

Further lines, with some results ahead:

| EC50 [1] | EC50 [2] | Structure (SMILES) | also measured |
| --- | --- | --- | --- |
| 220 nM | – | O=C(O[C@@H]1CCCNC1)N1CCc2ccccc2[C@@H]1c1ccc(F)cc1 (single isomer, unassigned) [Compound 2181] | – |
| – | 3030 nM | CN(C(=O)N1CCc2ccccc2[C@@H]1c1ccc(F)cc1)[C@H]1CCCNC1 (single isomer, unassigned) [Compound 2211] | – |
| – | 3050 nM | CN(C(=O)N1CCc2ccccc2[C@H]1c1ccc(F)cc1)[C@@H]1CCCNC1 (single isomer, unassigned) [Compound 2212] | – |
| – | 3530 nM | CN(C(=O)N1CCc2ccccc2[C@@H]1c1ccc(F)cc1)[C@@H]1CCCNC1 (single isomer, unassigned) [Compound 2213] | – |
| – | 3440 nM | N[C@H]1CCN(C(=O)N2CCc3ccccc3[C@H]2c2ccc(F)cc2)C1 (single isomer, unassigned) [Compound 2285] | – |
| – | 2330 nM | CN1CC[C@H](O)[C@@H](O)[C@@H]1COC(=O)N1CCc2ccccc2[C@@H]1c1ccc(F)cc1 (single isomer, unassigned) [Compound 2304] | – |
| – | 5870 nM | CN1CC[C@H](O)[C@@H](OC(=O)N2CCc3ccccc3[C@@H]2c2ccc(F)cc2)[C@@H]1CO (single isomer, unassigned) [Compound 2305] | – |
| – | 9740 nM | CN1C[C@@H](NC(=O)N2CCc3ccccc3[C@@H]2c2ccc(F)cc2)C2(CC2)C1 (single isomer, unassigned) [Compound 2317] | – |
| – | 3350 nM | CN1C[C@@H](NC(=O)N2CCc3ccccc3[C@H]2c2ccc(F)cc2)C2(CC2)C1 (single isomer, unassigned) [Compound 2318] | – |
| 7220 nM | – | CN1CC2CCC(C1)C2OC(=O)N1CCc2ccccc2[C@@H]1c1ccc(F)cc1 (stereo in doubt) [Compound 2094, (1S)-3-methyl-3-aza-bicyclo[3.2.1]octan-8-yl 1-(4-fluorophenyl)-3,4-dihydroisoquinoline-2(1H)-carboxylate] | – |
| – | 600 nM | O=C(O[C@H]1CNCC12CC2)N1CCc2ccccc2[C@@H]1c1ccc(F)cc1 (stereo in doubt) [Compound 2309, 5-azaspiro[2.4]heptan-7-yl-(1 S)-1-(4-fluorophenyl)-3,4-dihydroisoquinoline-2(1H)-carboxylate] | – |
| – | 501 nM | O=C(O[C@@H]1CNCC12CC2)N1CCc2ccccc2[C@@H]1c1ccc(F)cc1 (stereo in doubt) [Compound 2310, 5-azaspiro[2.4]heptan-7-yl-(1 S)-1-(4-fluorophenyl)-3,4-dihydroisoquinoline-2(1H)-carboxylate] | – |
| – | 1320 nM | CN(C)C1CCN(C(=O)N2CCc3ccccc3[C@@H]2c2ccc(F)cc2)C1 (stereo in doubt) [Compound 2311, ((R)-3-(dimethylamino)pyrrolidin-1-yl)((S)-1-(4-fluorophenyl)-3,4-dihydroisoquinolin-2(1H)-yl)methanone] | – |
| 748 nM | – | O=C(OC1CC2CCN(C2)C1)N1CCc2ccccc2[C@@H]1c1ccc(F)cc1 (stereo partly drawn) [Compound 2002] | – |
| 1130 nM | – | CN1CCO[C@H](CC(=O)N2CCc3ccccc3[C@@H]2c2ccc(F)cc2)C1 [Compound 2003] | – |
| 1050 nM | – | CN1CCO[C@H](COC(=O)N2CCc3ccccc3[C@@H]2c2ccc(F)cc2)C1 [Compound 2004] | – |
| 587 nM | – | CN1CCO[C@@H](COC(=O)N2CCc3ccccc3[C@@H]2c2ccc(F)cc2)C1 [Compound 2005] | – |
| 559 nM | – | CN1C[C@H]2CC[C@@H](C1)[C@H]2OC(=O)N1CCc2ccccc2[C@@H]1c1ccc(F)cc1 [Compound 2008] | – |
| 1890 nM | – | CN1CCC2(CC1)CC(OC(=O)N1CCc3ccccc3[C@@H]1c1ccc(F)cc1)C2 [Compound 2018] | – |
| 965 nM | – | CN1CC2(CC(OC(=O)N3CCc4ccccc4[C@@H]3c3ccc(F)cc3)C2)C1 [Compound 2019] | – |
| 230 nM | – | CN1CCC(OC(=O)N2CCc3ccccc3[C@@H]2c2ccc(F)cc2)CC1 [Compound 2020] | – |
| 735 nM | – | CN1CC2(CC[C@@H]2OC(=O)N2CCc3ccccc3[C@@H]2c2ccc(F)cc2)C1 [Compound 2021] | – |
| 960 nM | – | CN1CC2(CC[C@H]2OC(=O)N2CCc3ccccc3[C@@H]2c2ccc(F)cc2)C1 [Compound 2022] | – |
